Source: paper PMC11480993, “Combining Data-Driven and Structure-Based Approaches in Designing Dual PARP1-BRD4 Inhibitors for Breast Cancer Treatment” (Journal of Chemical Information and Modeling, 2024)
Like-named read-outs stand apart in the source and are kept apart here.

What was measured:
PARP1 [1] = test: Western blot, PARP1 expression in MCF-7 cells; assay type: cell-based; conditions: MCF-7, 48 h treatment
Description: (§1) Following a 48 h treatment, cellular proteins were extracted using RIPA cell lysis buffer containing protease and phosphatase inhibitor cocktail. The protein concentration was assessed by using a BCA assay. Subsequently, equal amounts of these proteins were loaded onto an SDS-PAGE gel and transferred onto a PVDF membrane. The protein-loaded membrane was then blocked using a commercial blocking solution (Beyotime, China) and sequentially incubated with primary and secondary antibodies. Protein bands were visualized using an ECL chemiluminescence kit and quantified using ImageJ software.

Bcl-2 = test: Western blot, Bcl-2 in MCF-7 cells; assay type: cell-based; conditions: MCF-7, 48 h, dose-dependent
Description: as §1

BRD4 [2] = test: Western blot, BRD4 expression in MCF-7 cells; assay type: cell-based; conditions: MCF-7, 48 h treatment
Description: as §1

MDA-MB-231 cells = test: Cell viability (MTT), MDA-MB-231; assay type: cell-based; conditions: Homo sapiens, MDA-MB-231, 96 h; 4-day treatment, wild-type BRCA
Description: (§2) MDA-MB-231, MDA-MB-436, and MCF-7 cells were seeded into 96-well plates with the number of 5 × 10^3 in each cell and allowed to incubate for 24 h. Subsequently, various concentrations of the test compounds (ranging from 100 to 0.78 μM with twice gradient dilution) were introduced. After 4 days of incubation, MTT solution was applied, and the cells were incubated for an additional 4 h. Following the removal of the supernatant, the violet crystals were dissolved in 200 μL of DMSO, and the absorbance was measured at 570 nm.

Rad51 = test: Western blot, Rad51 in MCF-7 cells; assay type: cell-based; conditions: MCF-7, 48 h
Description: as §1

MCF-7 cells [3] = test: Cell apoptosis detection (Annexin V-FITC/PI flow cytometry); assay type: cell-based; conditions: 2 μM, MCF-7, dose-dependent
Description: Cell apoptosis was assessed using the Annexin V-FITC/PI apoptosis detection kit. Following a 24 h treatment, cells were harvested and rinsed with PBS. Subsequently, the gathered cells were stained in accordance with the manufacturer’s guidelines and analyzed using BD FACSCelesta flow cytometry (New York, USA). FlowJo_V10 software was employed for data analysis.

MDA-MB-436 cells = test: Cell viability (MTT), MDA-MB-436; assay type: cell-based; conditions: Homo sapiens, MDA-MB-436, 96 h; 4-day treatment, BRCA mutant
Description: as §2

CDK6 = test: Western blot, CDK6 in MCF-7 cells; assay type: cell-based; conditions: MCF-7, 48 h
Description: as §1

cleaved Caspase 3 = test: Western blot, cleaved Caspase 3 in MCF-7 cells; assay type: cell-based; conditions: MCF-7, 48 h, dose-dependent
Description: as §1

PARP1 [4] = target: PARP1 (Homo sapiens, UniProt P09874); test: In vitro PARP1 enzymatic activity (ELISA, biotinylated NAD+, luminescence); assay type: biochemical
Description: The inhibition of the tested compounds on PARP1 enzymatic activity was determined by ELISA in 96-well plates. Each well was precoated with histone (20 μg/mL) diluted in 100 μL of PBS buffer (10 mM NaH2PO4, 100 mM Na2HPO4, 150 mM NaCl, pH 7.4) by incubation at 4 °C overnight. […] The reaction was initiated by the addition of 20 μL of PARP1 (50 ng/well) at 30 °C for 1 h. Then the reaction solution was added to 50 μL of streptavidin conjugated HRP. The assay was performed at 30 °C for an additional 30 min. Finally, 100 μL of solution (H2O2 and luminol in citrate buffer 0.1 M, pH 5.4) was added and luminescent signal was measured using a multiwell spectrophotometer (Molecular Devices SpectraMax M5 microplate reader).

BRD4 BD2 = BRD4 BD2 (Homo sapiens, UniProt O60885); test: BRD TR-FRET assay, BRD4 BD2; assay type: binding
Description: (§3) The assay was performed by TR-FRET technology using a BRD and its corresponding ligand (BET). The TR-FRET signal from the assay is correlated with the amount of ligand binding to the bromodomain. All of the binding reactions were conducted at room temperature. The 20 μL reaction mixture in Assay Buffer contains either bromodomains, BET Ligand, and the indicated amount of inhibitor. For the negative control (blank), 5 μL of the assay buffer was added instead of the BET ligand. The reaction mixture was incubated for 120 min. After the incubation with the ligand, the TR-FRET signal was measured using a Tecan Infinite M1000 plate reader.

BRD4 BD1 = BRD4 BD1 (Homo sapiens, UniProt O60885); test: BRD TR-FRET assay, BRD4 BD1; assay type: binding
Description: as §3

Caspase 3 = test: Western blot, Caspase 3 in MCF-7 cells; assay type: cell-based; conditions: MCF-7, 48 h, dose-dependent
Description: as §1

[5] = test system: HEK293T (human embryonic kidney cell); test: Cytotoxicity against non-tumor cells, HEK293T; assay type: cell-based; conditions: HEK-293T, 96 h, 4-day treatment
From the text: To further establish HF4’s advantage, we employed a web-based in silico cytotoxicity prediction tool (https://www.way2drug.com/clc-pred/index.php), encompassing the prediction against 391 tumor and 47 normal human cell lines,[47] to predict the cytotoxicity of HF4 against nontumor cell lines. […] The absence of nontumor cell lines among the top-ranked ones indicates a limited impact on normal cell line. When threshold of ≥0.15 was applied, among 50 predictions, only a single normal cell line (HEK293) was present in the list, with a predicted probability value below 0.2. We further reinforced the safety profile of HF4 by conducting experimental safety assessments on two normal cell lines. […] In summary, we conducted both computational safety predictions and experimental evaluations on normal cell lines to strengthen the assurance of HF4’s safety profile.
Cytotoxicity of HF4 against non-tumor cells
Figure S6. Cytotoxicity of HF4 against non-tumor cells during a 4-day treatment.
(1 picture or pasted object on this page, not shown here)

γH2AX = test: Western blot, γH2AX in MCF-7 cells; assay type: cell-based; conditions: MCF-7, 48 h
Description: as §1

BRD4 [6] = target: BRD4 (Homo sapiens, UniProt O60885); test: BRD TR-FRET assay, BRD4; assay type: binding
Description: as §3

MCF-7 cells [7] = test: Cell cycle detection (PI flow cytometry); assay type: cell-based; conditions: for cell cycle G0/G1 / cell cycle G2/M / cell cycle S: 24 h
Description: Cell cycle analysis was performed using a PI cell cycle detection kit. Following a 24 h treatment, cells were gathered, fixed with 75% ethanol, and stained with PI according to the manufacturer’s protocol. Subsequently, cell cycle analysis was detected using BD FACSCelesta flow cytometry (New York, USA). The obtained data were then subjected to analysis using FlowJo_V10.

BRD2 = BRD2 (Homo sapiens, UniProt P25440); test: BRD TR-FRET assay, BRD2; assay type: binding
Description: as §3

Chain of PARP1 (Homo sapiens, UniProt P09874) (P09874 whole entry): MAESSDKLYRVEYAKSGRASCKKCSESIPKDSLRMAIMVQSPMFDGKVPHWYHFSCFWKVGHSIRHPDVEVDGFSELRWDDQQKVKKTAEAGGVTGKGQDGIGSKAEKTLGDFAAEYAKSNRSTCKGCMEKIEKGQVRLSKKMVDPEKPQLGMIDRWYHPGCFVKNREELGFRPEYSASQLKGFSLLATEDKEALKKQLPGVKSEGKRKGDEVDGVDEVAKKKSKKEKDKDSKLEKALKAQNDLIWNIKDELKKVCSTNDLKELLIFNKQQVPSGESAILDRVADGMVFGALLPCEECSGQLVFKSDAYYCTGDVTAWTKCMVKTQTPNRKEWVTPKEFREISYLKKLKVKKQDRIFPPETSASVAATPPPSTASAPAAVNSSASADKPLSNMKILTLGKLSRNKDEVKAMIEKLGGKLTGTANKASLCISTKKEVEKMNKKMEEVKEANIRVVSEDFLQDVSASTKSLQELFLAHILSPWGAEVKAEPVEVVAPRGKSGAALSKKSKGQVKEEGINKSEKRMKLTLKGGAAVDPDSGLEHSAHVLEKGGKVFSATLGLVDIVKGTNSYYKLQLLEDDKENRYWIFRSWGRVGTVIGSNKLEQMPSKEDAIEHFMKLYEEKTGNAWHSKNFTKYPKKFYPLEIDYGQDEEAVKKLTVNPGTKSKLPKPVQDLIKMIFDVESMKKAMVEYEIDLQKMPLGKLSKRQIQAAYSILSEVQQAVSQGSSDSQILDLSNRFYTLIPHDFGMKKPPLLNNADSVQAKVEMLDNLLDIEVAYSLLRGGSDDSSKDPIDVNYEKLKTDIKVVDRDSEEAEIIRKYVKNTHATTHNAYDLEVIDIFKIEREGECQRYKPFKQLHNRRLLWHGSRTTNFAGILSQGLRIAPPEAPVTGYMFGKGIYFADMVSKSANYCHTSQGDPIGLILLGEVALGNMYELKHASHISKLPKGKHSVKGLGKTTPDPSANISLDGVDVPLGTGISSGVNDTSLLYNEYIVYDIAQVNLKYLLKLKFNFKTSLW
Chain of BRD2 (P25440 whole entry): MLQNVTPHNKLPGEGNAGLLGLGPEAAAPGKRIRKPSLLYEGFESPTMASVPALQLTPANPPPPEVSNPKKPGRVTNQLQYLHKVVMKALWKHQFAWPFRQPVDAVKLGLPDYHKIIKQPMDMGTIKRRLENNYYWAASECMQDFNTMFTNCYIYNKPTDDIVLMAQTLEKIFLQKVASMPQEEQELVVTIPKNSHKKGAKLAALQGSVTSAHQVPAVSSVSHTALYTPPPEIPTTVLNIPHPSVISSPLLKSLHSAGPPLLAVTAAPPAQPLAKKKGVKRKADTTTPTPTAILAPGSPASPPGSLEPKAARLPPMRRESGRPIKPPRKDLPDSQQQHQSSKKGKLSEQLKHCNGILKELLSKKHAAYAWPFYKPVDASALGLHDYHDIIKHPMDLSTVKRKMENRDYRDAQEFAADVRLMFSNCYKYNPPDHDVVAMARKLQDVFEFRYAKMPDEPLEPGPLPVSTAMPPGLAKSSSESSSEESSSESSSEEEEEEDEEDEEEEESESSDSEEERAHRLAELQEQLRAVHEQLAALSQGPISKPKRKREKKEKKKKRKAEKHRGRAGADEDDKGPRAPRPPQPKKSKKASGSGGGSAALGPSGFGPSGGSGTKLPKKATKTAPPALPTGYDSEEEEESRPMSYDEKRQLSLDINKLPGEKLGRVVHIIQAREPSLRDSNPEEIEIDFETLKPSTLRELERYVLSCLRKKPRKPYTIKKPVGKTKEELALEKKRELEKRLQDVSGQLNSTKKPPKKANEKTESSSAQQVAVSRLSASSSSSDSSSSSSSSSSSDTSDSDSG

CCc1cc2cc(NS(=O)(=O)c3ccc(F)c(C)c3)ccc2[nH]c1=O [HF4, N-(3-ethyl-2-oxo-1,2-dihydroquinolin-6-yl)-4-fluoro-3-methylbenzenesulfonamide]
PARP1 expression (PARP1 [1]): limited effect | Bcl-2 expression (Bcl-2): significantly downregulated | BRD4 expression (BRD4 [2]): an increase but to a much lesser extent than JQ1 | IC50 (MDA-MB-231 cells): 2200 nM | expression of Rad51 (Rad51): significantly reduced | apoptotic cells (MCF-7 cells [3]): substantial increase in apoptotic cells | IC50 (MDA-MB-436 cells): 4900 nM | CDK6 expression (CDK6): dose-dependently lowered | cleaved Caspase 3 expression (cleaved Caspase 3): upregulating | IC50 (PARP1 [4]): 2020 ± 683 nM | decrease in effectiveness against PARP1, tricyclic to bicyclic scaffold (PARP1 [4]; HF4 vs HF1): approximately 20 fold | ligand efficiency index against PARP1 (PARP1 [4]; pIC50 divided by HAC, HAC = 25): 0.23 | IC50 (PARP1 [4]; value of the text): ~2000 nM | IC50 (BRD4 BD2): 801 ± 238 nM | IC50 (BRD4 BD1): 204 ± 68 nM | selectivity BRD4 BD1 over BRD4 BD2 (BRD4 BD1; IC50 BD1 vs BD2): four times more potent | Caspase 3 expression (Caspase 3): significantly downregulated | IC50 [5]: 21500 ± 7400 nM | levels of γH2AX (γH2AX): dose-dependent upregulation | IC50 (BRD4 [6]): 1210 ± 324 nM | ligand efficiency index against BRD4 (BRD4 [6]; pIC50 divided by HAC, HAC = 25): 0.24 | IC50 (BRD4 [6]; value of the text): 1200 nM | reduction in capacity to inhibit BRD4 relative to PFI-1 (BRD4 [6]; vs PFI-1): around 5 fold | effect on cell cycle (MCF-7 cells [7]): halted the cell cycle at the G0/G1 phase | cell cycle G0/G1 (MCF-7 cells [7]; 2 μM): 83.0% | cell cycle G2/M (MCF-7 cells [7]; 2 μM): 0.51% | cell cycle S (MCF-7 cells [7]; 2 μM): 17.0% | cell cycle G0/G1 (MCF-7 cells [7]; 4 μM): 89.0% | cell cycle G2/M (MCF-7 cells [7]; 4 μM): 2.96% | cell cycle S (MCF-7 cells [7]; 4 μM): 9.42% | cell cycle G0/G1 (MCF-7 cells [7]; 8 μM): 92.0% | cell cycle G2/M (MCF-7 cells [7]; 8 μM): 4.55% | cell cycle S (MCF-7 cells [7]; 8 μM): 7.63% | IC50 (BRD2): 6830 ± 2200 nM
